Reference: patent US20090076012A1, “Modulation of pathogenicity” (priority 2002, published 2009)

test system: bioluminescent sensor strain Escherichia coli MT102 (pSB403); assay: Biosensor assay: quorum sensing inhibition, bioluminescence of the sensor strain; type: cell-based; conditions: 3oxo-C6-HSL 100 nM; bioluminescence after 4 hours at 30° C.
Protocol: Quorum sensing inhibition of the compounds was investigated with the aid of the bioluminescent sensor strain Escherichia coli MT102 (pSB403) (Winson et al., FEMS Microbiol. Lett. 163:185-92, 1998). Plasmid pSB403 contains the Photobacterium fischeri luxR gene together with the […] promoter region as a transcriptional fusion to the bioluminescence genes luxCDABE of Photorhabdus luminescence.
Inhibitory studies were conducted in a microtitre dish assay as follows: the E. coli sensor strain grown over night in LB medium (Sambrook et al., Molecular Cloning: A Laboratory Manual. 2nd Edn. Cold Spring Harbor Laboratory, New York, 1989) was diluted 1:4 and grown for another 1 hour at 30° C. After addition of 3oxo-C6-HSL (final concentration 100 nM) 100 μl of an exponential culture suspension were filled in the wells of a FluoroNunc Polysorp microtitre dish. The test compounds were added to the culture in different concentrations and bioluminescence was measured after 4 hours of incubation at 30° C. with a Lamda Fluoro 320 Plus reader (Bio-Tek Instruments). Inhibitor-mediated reduction of light emission was correlated with the value obtained without addition of the test compounds. IC50 values (concentration of inhibitor required for 50% inhibition of the signal compared to the signal without inhibitor) were determined by using a fitting function after drawing a graph of the activities of eight different inhibitor concentrations.

Work on `CCn1nc(C)c(Br)c1C(=O)NNC(=O)c1ccc(Cl)s1` [Compound 67, 4-Bromo-2ethyl-5-methyl-2H-pyrazole-3-carboxylic acid N′-(5-chloro-thiophene-2-carbonyl)-hydrazide] yielded an IC50 greater than 100 µM.

same assay, conditions: 3oxo-C6-HSL 100 nM; bioluminescence after 4 hours at 30° C.; read-out: IC50

For `CCCCCCCCCC(=O)CC(=O)Nc1sccc1C(=O)OC` [Compound 122, Z(3-Oxo-dodecanoylamino)-thiophene-3-carboxylic acid methyl ester], the IC50 was greater than 100 µM.

same assay, conditions: Escherichia coli, 4 h, 3oxo-C6-HSL 100 nM; bioluminescence after 4 hours at 30° C.

First: CCCCCCCC(=O)NNC(=O)c1c(Br)c(C)nn1CC [Compound 92, 4-Bromo-2-ethyl-5-methyl-2H-pyrazole-3-carboxylic acid N′-octanoyl-hydrazide]
Second: CCCCCCCC(=O)NNC(=O)c1sccc1Br [Compound 85, 3-Bromo-thiophene-2carboxylic acid N′-octanoyl-hydrazide]
The IC50 of the first is higher: 50 to 100 µM for the first, 1 to 50 µM for the second.

First: Cc1ccc(C(=O)NNC(=O)CCC2CCCC2)s1 [Compound 87, 5-Methyl-thiophene-2-carboxylic acid N′-(3-cyclopentyl-propionyl)-hydrazide]
Second: CCCC(=O)NNC(=O)c1ccc(C)s1 [Compound 76, 5-Methyl-thiophene-2-carboxylic acid N′-butyryl-hydrazide]
The IC50 of the first is lower: 1 to 50 µM for the first, 50 to 100 µM for the second. The first is the more potent here.

First: COC(=O)c1scc(C)c1NC(=O)c1cccs1 [Compound 5, 4-Methyl-3-[(thiophene-2-carbonyl)-amino]-thiophene-2-carboxylic acid methyl ester]
Second: Cc1csc(C(=O)NNC(=O)c2cccs2)c1Cl [Compound 43, Thiophene-2-carboxylic acid N′-(3-chloro-4-methyl-thiophene-2-carbonyl)-hydrazide]
The IC50 of the first is higher: greater than 100 µM for the first, 1 to 50 µM for the second. The second is the more potent here.

`CCCCCCCCCC(=O)CC(=O)Nc1cc(C)ns1` [Compound 126, 3-Oxo-dodecanoic acid (3-methyl-isothiazol-5-yl)-amide] and `CCCCCCC(=O)CC(=O)Nc1cc(C)ns1` [Compound 125, 3-Oxo-nonanoic acid (3-methyl-isothiazol-5-yl)-amide] cannot be ordered by IC50: greater than 100 µM for the first, greater than 100 µM for the second.

Compared with `CCOC(=O)CC(=O)NNC(=O)c1sccc1Br` [Compound 95], `COC(=O)CCCC(=O)NNC(=O)c1ccc(C)s1` [Compound 88] is higher in IC50: 1 to 50 µM for the first, greater than 100 µM for the second. The first is the more potent here.

First: CCCC(=O)NNS(=O)(=O)c1ccc(Cl)s1 [Compound 98, Butyric acid N′-(5-chloro-thiophen-2-sulfonyl)-hydrazide]
Second: CCCCCCC(=O)NNS(=O)(=O)c1ccc(Cl)s1 [Compound 99, N′-(5-Chloro-thiophen-2-sulfonyl)-heptanoic acid hydrazide]
The IC50 of the first is lower: 50 to 100 µM for the first, greater than 100 µM for the second.

`O=C(NNC(=O)c1sccc1Cl)c1ccc(Cl)s1` [Compound 58, 3-Chloro-thiophene-2-carboxylic acid N′-(5-chloro-thiophene-2-carbonyl)-hydrazide] and `O=C(NNC(=O)c1sccc1Cl)c1sccc1Cl` [Compound 49, 3-Chloro-thiophene-2-carboxylic acid N′-(3-chloro-thiophene-2-carbonyl)-hydrazide] fall in the same range of IC50: 50 to 100 µM for the first, 50 to 100 µM for the second.

`Cn1nccc1NC(=O)c1cnc(Cl)nc1C(F)(F)F` [Compound 1, 2-Chloro-4-trifluoromethyl-pyrimidine-5-carboxylic acid (2-methyl-2H-pyrazol-3-yl)-amide] and `Cc1cc(C(=O)NNc2nccc(C(F)(F)F)n2)n(C)n1` [Compound 26, 2,5-Dimethyl-2H-pyrazole-3-carboxylic acid N′-(4-trifluoromethyl-pyrimidin-2-yl)-hydrazide] fall in the same range of IC50: 1 to 50 µM for the first, 1 to 50 µM for the second.

`Cc1nc(C(F)(F)F)ccc1C(=O)NNC(=O)c1cccs1` [Compound 27, 2-Methyl-6-trifluoromethyl-nicotinic acid N′-(thiophene-2-carbonyl)-hydrazide] and `COc1c(C(=O)NNC(=O)c2cccs2)csc1Br` [Compound 42, Thiophene-2-carboxylic acid N′-(5-bromo-4-methoxy-thiophene-3-carbonyl)-hydrazide] fall in the same range of IC50: 1 to 50 µM for the first, 1 to 50 µM for the second.

`CCCCCCC(=O)NNC(=O)c1ccc(Br)s1` [Compound 84, 5-Bromo-thiophene-2-carboxylic acid N′-heptanoyl-hydrazide] and `CCCCCCC(=O)NNC(=O)c1cccs1` [Compound 79, Thiophene-2-carboxylic acid N′-heptanoyl-hydrazide] fall in the same range of IC50: 1 to 50 µM for the first, 1 to 50 µM for the second.

`Cn1nc(-c2ccc(Cl)cc2)cc1NC(=O)CCCCCBr` [Compound 16, 6-Bromo-hexanoic acid [5-(4chloro-phenyl)-2-methyl-2H-pyrazol-3-yl]-amide] and `CCCCCCC(=O)Nc1cc(-c2ccccc2)nn1C` [Compound 17, Heptanoic acid (2-methyl-5-phenyl-2H-pyrazol-3-yl)-amide] fall in the same range of IC50: 1 to 50 µM for the first, 1 to 50 µM for the second.

`COc1ccc(NC(=O)NNC(=O)c2ccc(Br)s2)cc1` [Compound 109, 1-(5-Bromo-thiophene-2-carbonyl)-4-(4-methoxy-phenyl)-semicarbazide] and `O=C(NNC(=O)c1ccc(Br)s1)Nc1c(F)cccc1F` [Compound 110, 1-(5-Bromo-thiophene-2-carbonyl)-4-(2,6-difluoro-phenyl)-semicarbazide] cannot be ordered by IC50: greater than 100 µM for the first, greater than 100 µM for the second.

`CCCCCCCCCC(=O)CC(=O)Nc1cc(C)no1` [Compound 133, 3-Oxo-dodecanoic acid (3-methyl-isoxazol-5-yl)-amide] and `CCCCCCCCCC(=O)CC(=O)Nc1cc(C)nn1C` [Compound 119, 3-Oxo-dodecanoic acid (2,5-dimethyl-2H-pyrazol-3-yl)-amide] cannot be ordered by IC50: greater than 100 µM for the first, greater than 100 µM for the second.

`CCCCNC(=S)NNC(=O)c1cccs1` [Compound 100, 4-Butyl-1-(thiophene-2-carbonyl)-thiosemicarbazide] and `O=C(CCCCCBr)NNC(=O)c1cccs1` [Compound 78, Thiophene-2-carboxylic acid N′-(6-bromo-hexanoyl)-hydrazide] fall in the same range of IC50: 1 to 50 µM for the first, 1 to 50 µM for the second.

First: O=C(NNC(=O)c1cc(Br)c(Br)s1)Nc1cccc(C(F)(F)F)c1 [Compound 104, 1-(4,5-Dibromo-thiophene-2-carbonyl)-4-(3-trifluoromethyl-phenyl)-semi-carbazide]
Second: O=C(NNC(=O)c1ccc(Br)s1)Nc1ccc(F)cc1C(F)(F)F [Compound 102, 1-(5-Bromo-thiophene-2-carbonyl)-4-(4-fluoro-2-trifluoromethyl-phenyl)-semicarbazide]
The IC50 of the first is lower: 1 to 50 µM for the first, greater than 100 µM for the second.

`CCCCCCC(=O)CC(=O)Nn1cccn1` [Compound 120, 3-Oxo-nonanoic acid pyrazol-1-ylamide] and `CCCCCCC(=O)CC(=O)Nc1ccon1` [Compound 130, 3-Oxo-nonanoic acid isoxazol-3-ylamide] cannot be ordered by IC50: greater than 100 µM for the first, greater than 100 µM for the second.

`CCCCCCCCCC(=O)CC(=O)Nc1nccs1` [Compound 128, 3-Oxo-dodecanoic acid thiazol-2-ylamide] and `CCCCCCCCCC(=O)CC(=O)Nc1ccon1` [Compound 131, 3-Oxo-dodecanoic acid isoxazol-3-ylamide] cannot be ordered by IC50: greater than 100 µM for the first, greater than 100 µM for the second.

First: O=C(NNC(=O)c1cccs1)c1ccsc1 [Compound 47, Thiophene-3-carboxylic acid N′-(thiophene-2-carbonyl)-hydrazide]
Second: O=C(NNC(=O)c1cccs1)c1cccs1 [Compound 46, Thiophene-2-carboxylic acid N′-(thiophene-2-carbonyl)-hydrazide]
The IC50 of the first is lower: 1 to 50 µM for the first, 50 to 100 µM for the second.

First: Cc1c(C(=O)NNC(=O)c2cccs2)[n+]([O-])c2ccccc2[n+]1[O-] [Compound 32, N′-(3-Methyl-1,4dioxy-quinoxaline-2-carbonyl)-thiophene-2-carboxylic acid hydrazide]
Second: O=C(NNC(=O)c1sc2ccccc2c1Cl)c1ccco1 [Compound 41, Furan-2-carboxylic acid N′-(3-chloro-benzo[b]thiophene-2-carbonyl)-hydrazide]
The IC50 of the first is higher: 50 to 100 µM for the first, 1 to 50 µM for the second. The second is the more potent here.

`CCOc1ccsc1C(=O)NNC(=O)c1sccc1Cl` [Compound 44, 3-Chloro-thiophene-2-carboxylic acid N′-(3-ethoxy-thiophene-2-carbonyl)-hydrazide] and `CCn1nc(C)c(Br)c1C(=O)NNC(=O)c1scc(C)c1Cl` [Compound 72, 4-Bromo-2-ethyl-5-methyl-2H-pyrazole-3-carboxylic acid N′-(3-chloro-4-methylthiophene-2-carbonyl)-hydrazide] cannot be ordered by IC50: greater than 100 µM for the first, greater than 100 µM for the second.

`Cn1ncc(Br)c1NC(=O)CCCCCBr` [Compound 23, 6-Bromo-hexanoic acid (4-bromo-2-methyl-2H-pyrazol-3-yl)-amide] and `CCCCCCC(=O)Nc1c(Br)cnn1C` [Compound 21] fall in the same range of IC50: 1 to 50 µM for the first, 1 to 50 µM for the second.

`Cc1ccccc1NC(=O)NNC(=O)c1sc2ccccc2c1Cl` [Compound 112, 1-(3-Chloro-benzo[b]thiophene-2-carbonyl)-4-o-tolyl-semi-carbazide] and `CCCCCNC(=O)NNC(=O)c1cc(Br)c(Br)s1` [Compound 101, 1-(4,5-Dibromo-thiophene-2-carbonyl)-4-pentyl-semicarbazide] cannot be ordered by IC50: greater than 100 µM for the first, greater than 100 µM for the second.

Compared with `O=C(CCC1CCCC1)NNC(=O)c1ccco1` [Compound 90, Furan-2-carboxylic acid N′-(3-cyclopentyl-propionyl)-hydrazide], `CCCCCCC(=O)CC(=O)Nc1oc(C)c(C)c1C#N` [Compound 136, 3-Oxo-nonanoic acid (3-cyano-4,5-dimethyl-furan-2-yl)-amide] is higher in IC50: 1 to 50 µM for the first, greater than 100 µM for the second.
